Measurements taken from patent US20090253669A1, “Substituted Sulfonamide Compounds” (GRUENENTHAL GmbH, priority 2008, published 2009).
Read-outs that look alike come from different tables or passages of the source.

Key:
[1] = target: T1, human B1R receptor (hB1R) (Homo sapiens, UniProt P46663); experiment: FLIPR Ca2+ assay on hB1R-transfected CHO K1 cells, antagonistic action; format: cell-based
T1 construct: host or cells: CHO K1 cells
T1 sequence (P46663 1-353): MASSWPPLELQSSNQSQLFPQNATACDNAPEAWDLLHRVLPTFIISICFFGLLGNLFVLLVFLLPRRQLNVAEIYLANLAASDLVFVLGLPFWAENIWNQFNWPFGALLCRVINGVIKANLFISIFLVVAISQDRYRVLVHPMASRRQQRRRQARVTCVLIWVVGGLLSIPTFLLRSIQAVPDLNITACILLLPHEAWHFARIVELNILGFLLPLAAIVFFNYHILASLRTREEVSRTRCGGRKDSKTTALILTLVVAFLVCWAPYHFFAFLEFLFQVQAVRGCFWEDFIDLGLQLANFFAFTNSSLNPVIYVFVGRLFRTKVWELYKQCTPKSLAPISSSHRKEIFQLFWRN

[2] = target: T2, B1R receptor of the rat (rB1R) (Rattus norvegicus, UniProt P97583); experiment: FLIPR Ca2+ assay on rB1R-transfected CHO K1 cells, antagonistic action; format: cell-based
T2 construct: host or cells: CHO K1 cells
T2 sequence (P97583 1-337): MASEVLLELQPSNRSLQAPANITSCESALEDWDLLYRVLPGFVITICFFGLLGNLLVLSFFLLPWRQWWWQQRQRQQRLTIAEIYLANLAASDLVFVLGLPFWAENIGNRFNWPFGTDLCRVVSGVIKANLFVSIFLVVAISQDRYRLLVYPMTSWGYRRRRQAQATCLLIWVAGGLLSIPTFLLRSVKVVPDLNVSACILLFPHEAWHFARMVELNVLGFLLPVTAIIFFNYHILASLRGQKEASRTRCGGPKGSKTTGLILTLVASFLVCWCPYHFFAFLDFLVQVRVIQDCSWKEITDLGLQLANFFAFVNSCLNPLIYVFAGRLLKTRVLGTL

[3] = CHO-K1, 10 μM test substance, agonist Lys-Des-Arg9-bradykinin 0.5 nM, % of maximum achievable inhibition, read-out: hB1R [10 μM] % inhibition
[4] = CHO-K1, 10 μM test substance, agonist Des-Arg9-bradykinin 100 nM, % of maximum achievable inhibition, read-out: rB1R [10 μM] % inhibition

Structure (SMILES)	inhibition at 10 µM [1, 3]	inhibition at 10 µM [2, 4]	other results
CN(CC1CCC(CCc2ccccc2)(N2CCCC2)CC1)C(=O)CC(NS(=O)(=O)c1ccc2ccccc2c1)c1ccccc1 (centres unmarked) [Compound 89, N-methyl-3-(naphthalene-2-sulfonamido)-N-((4-phenethyl-4-(pyrrolidin-1-yl)cyclohexyl)methyl)-3-phenylpropanamide]	92%	98%	
COc1cc(C)c(S(=O)(=O)N2CCCCC2COCC(=O)NC2CCC(c3ccccc3)(N3CCOCC3)CC2)c(C)c1 (centres unmarked) [Compound 158, 2-((1-(4-methoxy-2,6-dimethylphenylsulfonyl)piperidin-2-yl)methoxy)-N-(4-morpholino-4-phenylcyclohexyl)acetamide]	87%	99%	
COc1cc(C)c(S(=O)(=O)N2CCC(OCC(=O)NC3CCC(Cc4ccccc4C)(N(C)C)CC3)C2)c(C)c1 (centres unmarked) [Compound 14, N-(4-(dimethylamino)-4-(2-methylbenzyl)cyclohexyl)-2-(1-(4-methoxy-2,6-dimethylphenylsulfonyl)pyrrolidin-3-yloxy)acetamide]	89%	82%	
COc1cc(C)c(S(=O)(=O)N(C)CCOCC(=O)NC2CCC(Cc3ccccc3C)(N(C)C)CC2)c(C)c1 (centres unmarked) [Compound 10, N-(4-(dimethylamino)-4-(2-methylbenzyl)cyclohexyl)-2-(2-(4-methoxy-N,2,6-trimethylphenylsulfonamido)ethoxy)acetamide]	103%	95%	
COc1cc(C)c(S(=O)(=O)N(C)CCOCC(=O)N(C)CCC2CCC(Cc3ccccc3)(N(C)C)CC2)c(C)c1 (centres unmarked) [Compound 53, N-(2-(4-benzyl-4-(dimethylamino)cyclohexyl)ethyl)-2-(2-(4-methoxy-N,2,6-trimethylphenylsulfonamido)ethoxy)-N-methylacetamide]	103%	100%	
CN1CCN(C2(CCc3ccccc3)CCN(C(=O)CC(NS(=O)(=O)c3ccc4ccccc4c3)c3ccccc3)CC2)CC1 (centres unmarked) [Compound 55, N-(3-(4-(4-methylpiperazin-1-yl)-4-phenethylpiperidin-1-yl)-3-oxo-1-phenylpropyl)naphthalene-2-sulfonamide]	99%	100%	
COc1cc(C)c(S(=O)(=O)N(C)CCOCC(=O)N(C)CC2CCC(Cc3ccccc3)(N3CCCC3)CC2)c(C)c1 (centres unmarked) [Compound 45, N-((4-benzyl-4-(pyrrolidin-1-yl)cyclohexyl)methyl)-2-(2-(4-methoxy-N,2,6-trimethylphenylsulfonamido)ethoxy)-N-methylacetamide]	104%	100%	
CN1CCN(C2(Cc3ccccc3)CCC(CN(C)C(=O)COCC3CCCN3S(=O)(=O)c3c(Cl)cc(Cl)cc3Cl)CC2)CC1 (centres unmarked) [Compound 168, N-((4-benzyl-4-(4-methylpiperazin-1-yl)cyclohexyl)methyl)-N-methyl-2-((1-(2,4,6-trichlorophenylsulfonyl)pyrrolidin-2-yl)methoxy)acetamide]	88%	88%	
CN(CC1CCC(Cc2ccccc2)(N2CCCC2)CC1)C(=O)CC(NS(=O)(=O)c1ccc2ccccc2c1)c1ccccc1 (centres unmarked) [Compound 112, N-((4-benzyl-4-(pyrrolidin-1-yl)cyclohexyl)methyl)-N-methyl-3-(naphthalene-2-sulfonamido)-3-phenylpropanamide]	97%	77%	
COc1cc(C)c(S(=O)(=O)N(C)CCOCC(=O)NC2CCC(Cc3ccccc3)(N3CCOCC3)CC2)c(C)c1 (centres unmarked) [Compound 171, N-(4-benzyl-4-morpholinocyclohexyl)-2-(2-(4-methoxy-N,2,6-trimethylphenylsulfonamido)ethoxy)acetamide]	75%	82%	
CN(C)C1(c2ccccc2)CCN(C(=O)COCC2CCc3ccccc3N2S(=O)(=O)c2ccc(Cl)c(Cl)c2)CC1 (centres unmarked) [Compound 109, 2-((1-(3,4-dichlorophenylsulfonyl)-1,2,3,4-tetrahydroquinolin-2-yl)methoxy)-1-(4-(dimethylamino)-4-phenylpiperidin-1-yl)ethanone]	80%	78%	
COc1cc(C)c(S(=O)(=O)N(C)CCOCC(=O)N2CCC(c3ccccc3)(N(C)C)CC2)c(C)c1 [Compound 54, N-(2-(2-(4-(dimethylamino)-4-phenylpiperidin-1-yl)-2-oxoethoxy)ethyl)-4-methoxy-N,2,6-trimethylbenzenesulfonamide]	103%	100%	
COc1cc(C)c(S(=O)(=O)N2CCCCC2COCC(=O)N2CCC(c3cccc(F)c3)(N3CCN(C)CC3)CC2)c(C)c1 (centres unmarked) [Compound 67, 1-(4-(3-fluorophenyl)-4-(4-methylpiperazin-1-yl)piperidin-1-yl)-2-((1-(4-methoxy-2,6-dimethylphenylsulfonyl)piperidin-2-yl)methoxy)ethanone]			hB1R [10 μM] % inhibition ([1]; 10 μM test substance, agonist Lys-Des-Arg9-bradykinin 0.5 nM, % of maximum achievable inhibition): 101%; rB1R [10 μM] % inhibition ([2]; 10 μM test substance, agonist Des-Arg9-bradykinin 100 nM, % of maximum achievable inhibition): 100%
CN(CCC1CCC(Cc2ccccc2)(N2CCCC2)CC1)C(=O)COCC1CCc2ccccc2N1S(=O)(=O)c1ccc(Cl)c(Cl)c1 (centres unmarked) [Compound 104, N-(2-(4-benzyl-4-(pyrrolidin-1-yl)cyclohexyl)ethyl)-2-((1-(3,4-dichlorophenylsulfonyl)-1,2,3,4-tetrahydroquinolin-2-yl)methoxy)-N-methylacetamide]	60%	82%	
CNC1(c2ccncc2)CCN(C(=O)COCCN(C)S(=O)(=O)c2c(C)cc(OC)cc2C)CC1 [Compound 209, 4-Methoxy-N,2,6-trimethyl-N-(2-(2-(4-(methylamino)-4-(pyridin-4-yl)piperidin-1-yl)-2-oxoethoxy)ethyl)benzenesulfonamide]			inhibition at 10 µM ([1]; CHO-K1, read-out: hB1R [10 μM] % inhibition): 100%; inhibition at 10 µM ([2]; CHO-K1, read-out: rB1R [10 μM] % inhibition): 99%
COc1cc(C)c(S(=O)(=O)N2CCCCC2COCC(=O)N2CCC(c3ccc(F)cc3)(N3CCN(C)CC3)CC2)c(C)c1 (centres unmarked) [Compound 70, 1-(4-(4-fluorophenyl)-4-(4-methylpiperazin-1-yl)piperidin-1-yl)-2-((1-(4-methoxy-2,6-dimethylphenylsulfonyl)piperidin-2-yl)methoxy)ethanone]	104%	99%	
COc1cc(C)c(S(=O)(=O)N(C)CCOCC(=O)N2CCC(c3cccnc3)(N(C)C)CC2)c(C)c1 [Compound 208, N-(2-(2-(4-(Dimethylamino)-4-(pyridin-3-yl)piperidin-1-yl)-2-oxoethoxy)ethyl)-4-methoxy-N,2,6-trimethylbenzenesulfonamide]	100%	102%	
CN(CCC1CCC(CCc2ccccc2)(N(C)C)CC1)C(=O)CC(NS(=O)(=O)c1ccc2ccccc2c1)c1ccccc1 (centres unmarked) [Compound 102, N-(2-(4-(dimethylamino)-4-phenethylcyclohexyl)ethyl)-N-methyl-3-(naphthalene-2-sulfonamido)-3-phenylpropanamide]	97%	85%	
O=C(CC1CCCCN1S(=O)(=O)c1cccc(C(F)(F)F)c1)N1CCC(c2ccccc2)(N2CCN(c3ccncc3)CC2)CC1 (centres unmarked) [Compound 113, 1-(4-phenyl-4-(4-(pyridin-4-yl)piperazin-1-yl)piperidin-1-yl)-2-(1-(3-(trifluoromethyl)phenylsulfonyl)piperidin-2-yl)ethanone]	79%	74%	
CN(CCOCC(=O)NC1CCC(Cc2ccccc2)(N2CCCC2)CC1)S(=O)(=O)c1c(Cl)cc(Cl)cc1Cl (centres unmarked) [Compound 189, N-(4-benzyl-4-(pyrrolidin-1-yl)cyclohexyl)-2-(2-(2,4,6-trichloro-N-methylphenylsulfonamido)ethoxy)acetamide]	65%	60%	
COc1cc(C)c(S(=O)(=O)N2CCCCC2COCC(=O)N(C)CCCC2CCC(c3ccccc3)(N3CCC3)CC2)c(C)c1 (centres unmarked) [Compound 205, N-(3-(4-(azetidin-1-yl)-4-phenylcyclohexyl)propyl)-2-((1-(4-methoxy-2,6-dimethylphenylsulfonyl)piperidin-2-yl)methoxy)-N-methylacetamide]	100%	100%	
CN(CCC1CCC(CCc2ccccc2)(N(C)C)CC1)C(=O)COCC1CCc2ccccc2N1S(=O)(=O)c1ccc(Cl)c(Cl)c1 (centres unmarked) [Compound 101, 2-((1-(3,4-dichlorophenylsulfonyl)-1,2,3,4-tetrahydroquinolin-2-yl)methoxy)-N-(2-(4-(dimethylamino)-4-phenethylcyclohexyl)ethyl)-N-methylacetamide]	99%	88%	
